The source of these data is PubChem BioAssay (NCI).

Assay in all cases: growth of human tumour cells (NCI), 48 h
In test [1] the test system is OVCAR-8 ovarian.
Test [2] has as its system HOP-62 NSCLC.
The test system of test [3] is SK-OV-3 ovarian.
In test [4] the test system is KM12 colon.
Test [5] concerns SR leukemia.
Test [6] deals with NCI-H460 lung.
The test system of test [7] is CCRF-CEM leukemia.
For test [8], the system named is NCI-H23 lung.
Test [9] concerns NCI-H226 lung.
Test [10] deals with RXF 393 renal.

Where “and” joins values, the source holds several entries; their conditions need not be identical. Identical values can stand only once.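 Following 48 hours of exposure in 96-well plates, responses at five concentrations were used to interpolate endpoints linearly. Here, GI50 denotes the concentration required for 50% inhibition of growth. Definition used: TGI = concentration required for complete inhibition of growth.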 Bounds are passed on as bounds.

`CCCCCCC1N=C(N)N=C(N)N1c1cccc(Cl)c1` (stereo not given): the GI50 in test [1] was 0.612 µM; in test [2], 0.436 µM; in test [3], 1.22 µM; in [4], 0.421 µM; in test [5], 0.748 µM; in test [6], 0.0873 µM. Moreover, the GI50 in test [7] was 0.442 µM; in test [8], 0.496 µM; in [9] it was 1.75 µM; in test [10], 3.44 µM. For the same molecule, the TGI in test [1] is 19.5 µM; in [2] it was 10.9 µM; in test [3], 20.9 µM; in test [4], 7.26 µM; in test [5], over 42.7 µM; in test [6], 12.7 µM. Moreover, the TGI in test [7] was over 66.8 µM; in test [8] it was 15 µM; in [9], 24.5 µM; in test [10] it was 15.7 µM.

For the molecule `O=C(Cn1c(C(=O)c2ccc(Cl)cc2)nc(-c2ccc(Cl)cc2)c1-c1ccc(Cl)cc1)c1ccccc1`, the GI50 in test [1], in test [2], in [3], in [4], in test [5] and in test [6] was over 100 µM throughout. Moreover, the GI50 in [7], in test [8], in test [9] and in [10] was over 100 µM each time. The TGI in test [1], in [2], in test [3], in [4], in [5] and in test [6] was over 100 µM in each case. For the same molecule, the TGI in test [7], in [8], in test [9] and in test [10] was over 100 µM each time.

Take `N#Cc1c(NCc2ccccc2)nc(NCc2ccccc2)c(C#N)c1-c1ccc(Cl)cc1`: the GI50 was > 50 µM and 45.7 µM in test [1]; > 50 µM and 22.3 µM in test [2]; over 100 µM in test [3]; > 50 µM and 85.8 µM in [4]; > 50 µM and 19.7 µM in [5]; > 50 µM and 34.4 µM in test [6]. Besides, the GI50 is > 50 µM and 22.5 µM in [7]; > 50 µM and 67.1 µM in test [8]; > 50 µM and 25.6 µM in [9]; 65.5 µM in [10]. In addition, the TGI in [1] is over 100 µM; in test [2], > 50 µM and 62.7 µM; in test [3], over 100 µM; in [4], over 100 µM; in test [5], > 50 µM and 58.5 µM; in test [6] it was over 100 µM. In addition, the TGI in test [7] is > 50 µM and 49.5 µM; in test [8] it was over 100 µM; in test [9], > 50 µM and 81.4 µM; in [10], over 100 µM.

As for `CCN1CCC(CC(=O)Nc2n[nH]c3nnc(-c4cccc(F)c4F)cc23)CC1`, the GI50 in test [1], in [2], in test [3], in test [4], in test [5] and in test [6] was over 25 µM throughout. Also, the GI50 in [7] is over 25 µM; in [8] it was over 25 µM; in [9], 22.5 µM; in [10], 5.56 µM. For the same molecule, the TGI in [1], in [2], in test [3], in test [4], in test [5] and in [6] was over 25 µM throughout. Also, the TGI in test [7], in test [8], in test [9] and in [10] was over 25 µM each time.

As to `N#CC(C#N)=NNc1ccc2cn[nH]c2c1`, the TGI was over 100 µM in test [1]; over 100 µM in test [2]; over 100 µM in test [3]; over 100 µM in [4]; 55.5 µM in [5]; over 100 µM in [6]. Besides, the TGI in test [7] is 55 µM; in test [8] it was 50 µM; in test [9], over 100 µM; in [10] it was 55.4 µM.

For the molecule `Cn1cc(C2=C(c3c4n(c5ccccc35)CCNC4)C(=O)NC2=O)c2ccccc21`, the GI50 in test [1] is over 16.9 µM; in test [2], 17.5 µM; in [3], 8.84 µM; in [4], 8.63 µM; in [5], 3.73 µM; in test [6] it was 10.6 µM. The GI50 in test [7] is 8.91 µM; in [8] it was 24.5 µM; in [9] it was 13.8 µM; in test [10], 3.73 µM. Moreover, the TGI in test [1], in test [2], in [3], in test [4], in test [5] and in test [6] was over 25 µM each time. Also, the TGI is over 25 µM in [7], over 25 µM in test [8], over 25 µM in test [9] and 14.1 µM in [10].

As to `COc1ccc(/C=C/C(=O)c2c(O)ccc3c(C)c(C(=O)O)oc23)cc1`, the GI50 in test [1] is 61.3 µM; in [2], 89.9 µM; in [3], over 100 µM; in test [4], over 100 µM; in test [5], 19.2 µM; in test [6], 34 µM. Further, the GI50 in test [7] was 40.3 µM; in test [8] it was 74.2 µM; in test [9], 45.1 µM; in test [10], 55.5 µM. For the same molecule, the TGI in test [1] is over 100 µM; in test [2] it was over 100 µM; in test [3] it was over 100 µM; in test [4], over 100 µM; in test [5] it was 64.4 µM; in test [6] it was over 100 µM. In addition, the TGI in test [7], in [8], in [9] and in test [10] was over 100 µM in each case.

In the case of `NC1N=Nc2ccccc21` (stereo not given), the TGI in test [1], in test [2], in test [3], in test [4], in [5] and in test [6] was over 100 µM each time. Also, the TGI in test [7], in [8], in test [9] and in [10] was over 100 µM throughout.
